# Assay: Inhibition of hPIV1 sialidase
# Design: species or system Human respirovirus 1
row,Compound,IC50 [µM]
1,CC(=O)N[C@H]1[C@H]([C@H](O)[C@H](O)CO)OC(C(=O)O)=C[C@@H]1OCC(N)=S,9
2,CC(=O)N[C@H]1[C@H]([C@H](O)[C@H](O)CO)OC(C(=O)O)=C[C@@H]1OCCC(N)=S,68
3,CC(=O)N[C@H]1[C@H]([C@H](O)[C@H](O)CO)OC(C(=O)O)=C[C@@H]1OCCCC(N)=S,102
4,CC(=O)N[C@H]1[C@H]([C@H](O)[C@H](O)CO)OC(C(=O)O)=C[C@@H]1O [NEU5AC2EN],300

# From ChEMBL document CHEMBL1158164, “2-Deoxy-2,3-didehydro-N-acetylneuraminic acid analogs structurally modified by thiocarbamoylalkyl groups at the C-4 position: Synthesis and biological evaluation as inhibitors of human parainfluenza virus type 1” (Bioorg Med Chem, 2008)
